IC50 data for twelve compounds are collected here from patent US9777003B2, “Tricyclic heterocycles as bet protein inhibitors” (Incyte Corporation, priority 2013, dated 2017).

Structures can show the parent of a compound that is named as a salt.

One assay concerns the target BRD4-BD1 (Homo sapiens (Human), UniProt O60885). Nature of the assay: BRD4 AlphaScreen assay, BRD4-BD1. The settings on record: biotin-labeled tetra-acetylated histone H4 peptide, 75 min, room temperature, read-out: BRD4 BD-1 enzyme IC50. The assay is classed as binding. The procedure:
(§1) BRD4-BD1 and BRD4-BD2 assays were conducted in white 384-well polystyrene plate in a final volume of 20 μL for BD1 and 40 μL for BD2. Inhibitors were first serially diluted in DMSO and added to the plate wells before the addition of other reaction components. The final concentration of DMSO in the assay was 1.25% (BD1) and 0.83% (BD2). The assays were carried out at room temperature for 75 min. in the assay buffer (50 mM HEPES, pH 7.4, 100 mM NaCl, 0.05% CHAPS, 0.01% BSA), containing 50 nM Biotin-labeled tetra-acetylated histone H4 peptide (H4Ac4), 3.8 nM (BRD4-BD1, BPS Bioscience #31040) or 20 nM (BRD4-BD2, BPS Bioscience #31041). The reaction followed by the addition of 20 μL of assay buffer supplemented with Streptavidin donor beads (PerkinElmer 6760002) and GSH Acceptor beads (PerkinElmer-AL109C) at 4 μg/mL under reduced light. After plate sealing, the plate was incubated in the dark at room temperature for 75 min. before reading on a PHERAstar FS plate reader (BMG Labtech). IC50 determination was performed by fitting the curve of percent control activity versus the log of the inhibitor concentration using the GraphPad Prism 5.0 software.

For the next assay, the target named is BRD4-BD2 (Homo sapiens (Human), UniProt O60885). Nature of the assay: BRD4 AlphaScreen assay, BRD4-BD2. The assay is classed as binding. The settings on record: biotin-labeled tetra-acetylated histone H4 peptide, 75 min, room temperature, read-out: BRD4 BD-2 enzyme IC50. How it is done: as §1

As for `CCCNc1cc2c(cc(C)n2Cc2ccccc2)n2c(C)nnc12` [Example 262, 6-Benzyl-N-propyl-1,7-dimethyl-6H-pyrrolo[2,3-e][1,2,4]triazolo[4,3-a]pyridin-4-amine], the IC50 at BRD4-BD1 and on BRD4-BD2 was no more than 100 nM throughout.

As for `Cc1cc2c(cc(NC(=O)NC(C)C)c3nnc(C)n32)n1Cc1ccccc1` [Example 250, 1-(6-Benzyl-1,7-dimethyl-6H-pyrrolo[2,3-e][1,2,4]triazolo[4,3-a]pyridin-4-yl)-3-isopropylurea], the IC50 at BRD4-BD1 and at BRD4-BD2 was no more than 100 nM each time.

Take `Cc1nnc2ccc3c(cc(-c4nccs4)n3Cc3ccccc3)n12` [Example 67, 6-benzyl-1-methyl-7-(1,3-thiazol-2-yl)-6H-pyrrolo[2,3-e][1,2,4]triazolo[4,3-a]pyridine]: the IC50 at BRD4-BD1 and at BRD4-BD2 was no more than 100 nM in each case.

For `CCN1CCC(Nc2cc3c(cc(C)n3Cc3ccccc3)n3c(C)nnc23)CC1` [Example 212, 6-Benzyl-N-(1-ethylpiperidin-4-yl)-1,7-dimethyl-6H-pyrrolo[2,3-e][1,2,4]triazolo[4,3-a]pyridin-4-amine], the IC50 at BRD4-BD1 and at BRD4-BD2 was no more than 100 nM each time.

Turning to `Cc1cc2c(ccc3nnc(C)n32)n1Cc1cccc(CN2CCOCC2)c1` [Example 38, 1,7-dimethyl-6-[3-(morpholin-4-ylmethyl)benzyl]-6H-pyrrolo[2,3-e][1,2,4]triazolo[4,3-a]pyridine], the IC50 on BRD4-BD1 was 100 to 1000 nM; on BRD4-BD2, no more than 100 nM.

Take `Cc1cc2c(cc(NC(N)=O)c3nnc(C)n32)n1Cc1ccc(F)c(F)c1` [Example 234, 1-(6-(3,4-Difluorobenzyl)-1,7-dimethyl-6H-pyrrolo[2,3-e][1,2,4]triazolo[4,3-a]pyridin-4-yl)urea]: the IC50 at BRD4-BD1 and on BRD4-BD2 was no more than 100 nM in each case.

With `Cc1nnc2ccc3c(cc(-c4ncco4)n3Cc3cc(Cl)cc(CN4CCC(O)C4)c3)n12` (racemic) [Example 199, 1-(3-Chloro-5-{[1-methyl-7-(1,3-oxazol-2-yl)-6H-pyrrolo[2,3-e][1,2,4]triazolo[4,3-a]pyridin-6-yl]methyl}benzyl)pyrrolidin-3-ol bis(trifluoroacetate) Salt (Racemic)], the IC50 on BRD4-BD1 and on BRD4-BD2 was no more than 100 nM in each case.

For the compound `Cc1nnc2ccc3c(cc(C(=O)NCCN4CCOCC4)n3Cc3cccc(Cl)c3)n12` [Example 119, 6-(3-Chlorobenzyl)-1-methyl-N-(2-morpholin-4-ylethyl)-6H-pyrrolo[2,3-e][1,2,4]triazolo[4,3-a]pyridine-7-carboxamide Trifluoroacetate Salt], the IC50 at BRD4-BD1 and at BRD4-BD2 was no more than 100 nM throughout.

`Cc1cc2c(cc(NC3CN(C(=O)OC(C)(C)C)C3)c3nnc(C)n32)n1Cc1ccccc1` [Example 244, tert-Butyl 3-(6-benzyl-1,7-dimethyl-6H-pyrrolo[2,3-e][1,2,4]triazolo[4,3-a]pyridin-4-ylamino)azetidine-1-carboxylate]: the IC50 on BRD4-BD1 and on BRD4-BD2 was no more than 100 nM in each case.

For `Cc1nnc2ccc3c(cc(-c4ccn(CCC(=O)NC5COC5)n4)n3Cc3cccc(Cl)c3)n12` [Example 168, 3-{3-[6-(3-Chlorobenzyl)-1-methyl-6H-pyrrolo[2,3-e][1,2,4]triazolo[4,3-a]pyridin-7-yl]-1H-pyrazol-1-yl}-N-oxetan-3-ylpropanamide Trifluoroacetate Salt], the half-inhibitory concentration (IC50) at BRD4-BD1 and on BRD4-BD2 was no more than 100 nM throughout.

As to `Cc1nnc2ccc3c(cc(CCO)n3Cc3ccccc3)n12` [Example 61, 2-(6-benzyl-1-methyl-6H-pyrrolo[2,3-e][1,2,4]triazolo[4,3-a]pyridin-7-yl)ethanol], the IC50 lay within 1000 to 10000 nM on BRD4-BD1 and 100 to 1000 nM on BRD4-BD2.

Take `Cc1nnc2ccc3c(cc(-c4ccn(CC(C)C#N)n4)n3Cc3ccccc3)n12` (racemic) [Example 88, 3-[3-(6-benzyl-1-methyl-6H-pyrrolo[2,3-e][1,2,4]triazolo[4,3-a]pyridin-7-yl)-1H-pyrazol-1-yl]-2-methylpropanenitrile Trifluoroacetate Salt]: the IC50 on BRD4-BD1 and on BRD4-BD2 was no more than 100 nM each time.
